Laboratory results from patent US20210381022A1, “INTEGRATED DRUG DISCOVERY PLATFORM FOR INBORN ERROR OF METABOLISM DISORDERS” (RAMOT AT TEL-AVIV UNIVERSITY LTD., priority 2018, published 2021).

What was measured:
[1] = system: cys4Δ strain; assay: Yeast growth assay of cys4Δ mutant with homocysteine; type: cell-based, Saccharomyces cerevisiae; settings: compared to the wild-type strain, 20, 40, 80 mg/L
Procedure: FIG. 27E: WT and cys4Δ strains diluted to OD600 0.01 were grown in SD media containing 13 mg/L cysteine and 80 mg/L homocysteine in the under the indicated conditions. 0.3 mM TA was added to the samples at different OD600. The percentage of growth represents the growth the indicated condition compared to the growth of WT without TA. *P<0.05 (Student's t-test).
Homocystinuria results from cystathionine beta synthase (CBS) deficiency, leading to excess of Hcy. A knockout mutation in CYS4, the highly-conserved functional yeast ortholog of the human cystathionine beta synthase (CBS) known to be essential for Hcy salvage, was therefore generated. Due to the contribution of this enzyme to cysteine biosynthesis, it was first shown that its absence confers cysteine dependence (FIG. 27A). […] To examine whether the observed toxicity was associated with the in vivo formation of amyloid-like assemblies, the cells were stained with the amyloid-specific fluorescent dye ProteoStat which allows to detect intracellular amyloid fibrils. […] Next, to further establish the amyloid-like nature of the aggregates, the fibrillation-modifying polyphenolic compound tannic acid (TA) was used (FIG. 27E).

[2] = system: GABAA receptor; settings: general description; cited from earlier work
[3] = system: aah1Δapt1Δ strain; assay: Yeast growth assay of adenine salvage mutant with adenine feeding; type: cell-based, Saccharomyces cerevisiae
Procedure: (§1) Strains were grown over night at 30° C. in SD medium without adenine. For spotting assays, strains were diluted to 6.25*10^7 cells/mL and were then 5-fold serially diluted and spotted on SD media with the indicated concentrations of adenine or TA (Sigma-Aldrich). Plates were incubated at 30° C. for 2 days. […] For OD600 measurements, strains were diluted to OD600 0.01, 200 μL of cells were platted on 96 wells plates and incubated at 30° C. for 25 hours with continuous shaking. OD600 was measured using Tecan™ SPARK 10M plate reader.
For the percentage of growth analysis (FIG. 10B and FIG. 13A), OD600 was measured when cells reached log phase. The percentage of growth represents the growth with TA compared to the growth without TA.

[4] = system: adenosine aggregates in ADA deficient LCLs; assay: Aggregation assay (Proteostat, FACS) on ADA deficient LCLs; type: cell-based, human; settings: patient derived lymphoblastoids, adenosine, 19 concentrations from 50 μM to 0.003 μM
Procedure: 24 hours after seeding in full medium cells were washed with medium without serum and placed in medium without serum. Following 72 hours of incubation with or without Adenosine (A9251 SIGMA) (200 ug/ml), cells were washed with PBS and stained for adenosine aggregates with Proteostat dye (ENZ-51023-KP002). Proteostat concentration was 1:3000 of diluted stock. Following 15 minutes' incubation, cells were washed with PBS and mean fluorescence was measured with FACS.
Cells were treated with adenosine alone or with adenosine with compounds. Compound activity was tested in 19 concentrations in range from 50 uM to 0.003 uM.
Readouts: Proteostat Fluorescence intensity was measured with FACS at 2 excitation wavelengths: 488 nm and 550 nm. Emission wavelength was 600 nm.
24 hours after seeding in 96 round bottom plates in full medium cells were washed once with medium without serum and placed in medium without serum. Following 72 hours of incubation with or without Adenosine (200 ug/ml) and with or without purpurin (2 uM), cells were washed once with PBS and stained for adenosine aggregates with Proteostat dye (Enzo Life Sciences). Proteostat concentration was 1:4000 of diluted stock. Following 15 minutes incubation, cells were washed with PBS and mean flow cytometry was preformed using Stratedigm S1000EXi and the CellCapTure software (Stratedigm, San Jose, Calif.). Analyses were performed using FlowJo software (TreeStar, version 10).
For quantification of intracellular adenosine aggregates by FACS analyses, 100,000 cells were seeded in 96 well plates in full medium. After 24 hours, cells were centrifuged, washed once and added with serum free medium with or without Adenosine (200 μg/ml). After incubation of 72 hours cells were washed with PBS and stained for adenosine aggregates with Proteostat dye. Following 15 minutes incubation, cells were washed with PBS and mean fluorescence was measured with FACS. Mean cell fluorescence of every cell line was normalized to its signal without adenosine and data is presented as percentage of aggregates.

[5] = system: adenine fibrils; assay: ThT assay of adenine self-assembly inhibition in vitro; settings: for amyloids staining (ThT, end point): adenine 8 mg/ml in PBS with inhibitor
Procedure: Adenine was dissolved at 90° C. in PBS to a final concentration of 8 mg/ml and mixed with the indicated inhibitor, at the indicated concentrations, or with PBS as a control, followed by addition of ThT in PBS. ThT emission data at 480 nm (excitation at 450 nm) were measured at the end point.
Adenine was dissolved to a final concentration of 8 mg/ml at 90° C. in PBS. The solution was plated on a 96-well black plate and mixed with the inhibitor baicalein at the stated concentration, and with 20 μm ThT (final concentration). Fluorescence (excitation at 450 nm, emission at 480 nm) was recorded over time using a Tecan™ Infinite® 200 PRO plate reader. Data processing was performed using the OriginLab software.
To further examine if the compounds specifically target the adenosine amyloid-like structures. the compounds were tested using adenine in-vitro aggregation assay. Adenine was self-assembled with and without the inhibitors and stained with the amyloids dye, Thioflavin T (ThT). […] More specifically. Adenosine (30 mg/mL) and guanosine (3 mg/ml) were dissolved in PBS at 90° C., followed by the addition of ThT at final concentration of 20 μM. ThT emission data at 480 nm (excitation at 450 nm) was measured over time. TEM images show elongated adenosine fibrils (10 mg/mL) and guanosine fibrils (1 mg/mL) (FIGS. 34A and 34B, respectively). ThT fluorescence assay of adenosine and guanosine assemblies, are shown by FIGS. 34C, and 34D respectively.

[6] = system: lipoxygenases; settings: general description; cited from earlier work
[7] = biological target: estrogen receptor (Homo sapiens, UniProt P03372); settings: general description; cited from earlier work
[8] = biological target: CYP2C9 (Homo sapiens, UniProt P11712); settings: general description; cited from earlier work
[9] = system: RB857 (PAH-1 mutant) and N2 (WT) worms; assay: C. elegans model for PKU; type: in vivo, Caenorhabditis elegans; settings: 100 mM phenylalanine in minimal media, Baicalein added
Procedure: (§2) Wild-type N2, RB857 and NL2099 worms were obtained from the Caenorhabditis Genetics Center. RNAi clones was obtained from the Ahringer RNAi library as previously described [Fisher A L, et al., J. Biol. Chem. 283: 9127-9135(2008)]. Worms were grown on NGM media without peptone and the metabolites were added into a boiling media. Baicalein and EGCG were added to a media after cooled down to 45 degrees.
To study PKU in C. elegans model, a strain was used with mutation in the PAH-1 gene (RB857)]. […] Next, the effect of one of the previously identified hits i.e. baicalein was examined on the development of worms. The life cycle of C. elegans is comprised of the embryonic stage, four larval stages (L1-L4) and adulthood. The end of each larval stage is marked with a molt, during which a new, stage-specific cuticle is synthesized and the old one is shed.

[10] = system: aro3Δ mutant; assay: Yeast growth assay of aro3Δ mutant with tyrosine feeding; type: cell-based, Saccharomyces cerevisiae; settings: 4a.a SD medium with tyrosine
Procedure: as §1
The focus was put on a strain with a deletion of the ARO3 gene in which a significant decrease in cellular growth was observed upon tyrosine feeding (see FIG. 21). The inventors aimed to determine whether the toxic effect was influenced by different levels of tyrosine. Thus, the cellular growth of wild-type and the aro3Δ mutant was examined by serial dilutions on selective plates that were supplemented with different concentrations of tyrosine (FIG. 21A). In addition, cellular growth was also examined by measuring the turbidity of the medium upon addition of the indicated concentration of tyrosine (FIG. 21B). […] Thus, cell growth is affected by tyrosine levels in a dose-dependent manner which further supports the notion that the toxicity in the aro3Δ mutant results from the presence of tyrosine.
In order to examine the effect of EGCG on cell growth, the aro3Δ mutant was spotted on 4a.a SD plates that contained tyrosine alone or tyrosine with different concentrations of EGCG. […] Thus, the lag phase in the presence of EGCG was nearly the same as cells unexposed to tyrosine, indicating the potent ability of EGCG to eliminate the tyrosine sensitivity of the aro3Δ mutant. […] Next, the inventors aimed to gain additional insights into the effect of EGCG on the amyloid-like fibrils formed by the accumulation of tyrosine in the aro3Δ mutant cells. For that purpose, cells were stained with the amyloid-specific dye ProteoStat®, and FACS was applied to detect tyrosine aggregates. […] (FIG. 25).

[11] = system: fah-1 RNAi treated worms; assay: C. elegans model for Tyrosinemia (fah-1 RNAi); type: in vivo, Caenorhabditis elegans; settings: tyrosine added to fah-1 silenced worms
Procedure: as §2
Mutations in different enzymes that are involved in the tyrosine degradation pathway are responsible for different types of Tyrosinemia. The tyrosine degradation pathway in mammals and C. elegans in conserved and the most severe is type I Tyrosinemia, which is caused by mutations affecting the last enzyme in the pathway, fumarylacetoacetate hydrolase (FAH). To study Tyrosinemia in C. elegans model, an RNAi was used that specifically silences the fumarylacetoacetate hydrolase (fah-1), as was previously reported (K10C4.2). RNAi directed against fah-1 causes severe phenotype of reduced size, impaired fertility and reduction of total number of viable worms (FIG. 32).

[12] = system: phenylalanine assemblies; settings: reference [4]; cited from earlier work

Sequence of estrogen receptor (P03372 whole entry, species assumed): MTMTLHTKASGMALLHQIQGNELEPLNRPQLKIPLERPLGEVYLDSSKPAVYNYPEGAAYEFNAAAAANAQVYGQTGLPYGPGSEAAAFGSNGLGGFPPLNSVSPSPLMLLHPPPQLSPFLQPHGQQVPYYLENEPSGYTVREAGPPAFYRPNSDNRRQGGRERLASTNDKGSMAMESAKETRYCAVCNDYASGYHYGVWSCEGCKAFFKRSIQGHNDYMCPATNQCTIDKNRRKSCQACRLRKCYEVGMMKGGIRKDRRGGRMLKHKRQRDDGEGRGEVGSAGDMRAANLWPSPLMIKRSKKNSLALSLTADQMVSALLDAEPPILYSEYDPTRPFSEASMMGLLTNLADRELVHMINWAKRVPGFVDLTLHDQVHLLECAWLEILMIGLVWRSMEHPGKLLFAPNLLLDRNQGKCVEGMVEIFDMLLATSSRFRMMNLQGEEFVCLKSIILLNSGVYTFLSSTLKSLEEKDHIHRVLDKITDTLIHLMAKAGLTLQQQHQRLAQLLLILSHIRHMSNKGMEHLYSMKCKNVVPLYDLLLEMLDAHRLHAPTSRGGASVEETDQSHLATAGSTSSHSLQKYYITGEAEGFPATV
Sequence of CYP2C9 (P11712 whole entry): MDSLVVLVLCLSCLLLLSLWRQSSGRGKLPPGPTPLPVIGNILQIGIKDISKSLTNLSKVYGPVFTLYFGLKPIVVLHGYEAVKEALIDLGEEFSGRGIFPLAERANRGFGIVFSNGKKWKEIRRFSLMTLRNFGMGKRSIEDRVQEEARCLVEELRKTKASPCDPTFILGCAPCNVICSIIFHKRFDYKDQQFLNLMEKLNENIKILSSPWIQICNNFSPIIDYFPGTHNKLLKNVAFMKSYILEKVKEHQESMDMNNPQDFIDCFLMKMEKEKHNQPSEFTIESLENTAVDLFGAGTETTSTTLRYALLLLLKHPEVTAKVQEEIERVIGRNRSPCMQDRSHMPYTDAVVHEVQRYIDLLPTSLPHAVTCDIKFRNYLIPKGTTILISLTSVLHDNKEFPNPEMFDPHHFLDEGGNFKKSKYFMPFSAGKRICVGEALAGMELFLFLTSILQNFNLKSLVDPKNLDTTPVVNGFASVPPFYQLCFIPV

With N[C@@H](CCS)C(=O)O [Hcy, homocysteine] the “growth of CYS4 mutant with Hcy in the growth medium” value [1] was “sensitivity”.

In the case of O=C(O)[C@H]1O[C@@H](Oc2cc3oc(-c4ccccc4)cc(=O)c3c(O)c2O)[C@H](O)[C@@H](O)[C@@H]1O [baicalin, reference compound], the “modulation of the benzodiazepine site and/or a non-benzodiazepine site of the GABAA receptor” value [2] is given as “positive allosteric modulator”.

In the case of Nc1ncnc2nc[nH]c12 [adenine, Adenine], the “cell growth with increasing adenine levels in the medium” value ([3]; SD medium, adenine up to 40 mg/L) is reported as “decreased cell growth in a dose-dependent manner”.

For O=C1c2ccc(O)c(O)c2C(=O)c2c(O)ccc(O)c21 [Quinalizarin, 1,2,5,8-Tetrahydroxyanthracene-9,10-dione], the “formation of adenosine aggregates (aggregation level, Proteostat staining)” value (“formation of adenosine aggregates” below) [4] was “significantly reduce the aggregation level”, the “formation of adenosine aggregates” value ([4]; listed as quinalizarin) was “inhibited the formation of these aggregates” and the “amyloids staining (ThT, end point)” value [5] was “significantly reduced the amyloids staining”.

In the case of O=c1cc(-c2ccccc2)oc2cc(O)c(O)c(O)c12 [Baicalein, 5,6,7-Trihydroxy-2-phenyl-chromen-4-one], the “inhibition of certain types of lipoxygenases” value [6] is given as “inhibit”, the “formation of adenosine aggregates” value [4] is given as “significantly reduce the aggregation level” and the “formation of adenosine aggregates” value ([4]; listed as baicalein) is given as “inhibited the formation of these aggregates”. The “activity at the estrogen receptor” value [7] was “antagonist”, the “inhibition of CYP2C9” value [8] was “inhibitor” and the “modulation of the benzodiazepine site and/or a non-benzodiazepine site of the GABAA receptor” value [2] was “positive allosteric modulator”. For the same compound, the yeast cell growth ([3]; 2 mg/L adenine, baicalein 2.5, 5, 10 μM) was “significant effect on yeast cell growth”, the “adenine self-assembly in vitro (ThT fluorescence over time)” value ([5]; 8 mg/ml adenine, baicalein 5, 10, 100, 500 μM) was “dose-dependent inhibition of adenine self-assembly in vitro” and the “amyloids staining (ThT, end point)” value [5] was “significantly reduced the amyloids staining”. The “total number of worms” value ([9]; N2 and RB857) was “beneficial effect on both strains” and the “development of worms (reaching adulthood)” value ([9]; RB857 and WT) was “dramatic beneficial effect on both strains”.

With N[C@@H](Cc1ccc(O)cc1)C(=O)O [tyrosine] the “growth of aro3Δ mutant with increasing tyrosine concentration” value [10] was “increase of growth inhibition” and the “size, fertility and total number of viable worms” value [11] was “severe decline in all the observed phenotypes”.

For C[C@H]1c2cccc(O)c2C(=O)C2=C(O)[C@]3(O)C(=O)C(C(N)=O)=C(O)[C@@H](N(C)C)[C@@H]3[C@@H](O)[C@@H]21 [doxycycline], the “phenylalanine aggregation and cytotoxicity of the assemblies in vitro” value [12] is listed as “counteract”.

In the case of O=C1c2ccccc2C(=O)c2c1ccc(O)c2O [Alizarin, 1,2-Dihydroxyanthracene-9,10-dione], the “formation of adenosine aggregates” value [4] is reported as “significantly reduce the aggregation level” and the “formation of adenosine aggregates” value ([4]; listed as alizarin) is reported as “inhibited the formation of these aggregates”.
